Results reported in patent US20080081039A1, “Inorganic Selenium For Treatment Of Cancer” (priority 2004, published 2008).

Tests used:
[1] = system: DU145 prostate cancer cells; details: cited from earlier work
Akt = experiment: Activation of Akt by different selenium compounds in PC-3 cells, immunoblot; format: cell-based, human; details: 125 μM, 6 hours, serum starved PC-3 cells
Description: Signal intensities from the developed films were scanned and intensities of active Akt correlated to total Akt levels were plotted.

PC-3 cells = experiment: MTT growth assay; format: cell-based, human; details: 0.25 and 0.5 mM, 72 hour
Description: MTT Growth Assays involved plating 1×10^3 PC-3 cells per well in a 96 well plate and allowing the cells to attach overnight. […] The controls for this experiment received an equal volume of LY294002 diluent (DMSO). MTT growth assays were then performed according to the manufacturer's protocol (Sigma).

[2] = system: cell cycle regulatory proteins (cyclin D1, cdk4, cdk6, p27KIP1, p21CIP1); experiment: Immunoblot of cell cycle regulatory proteins in PC-3 cells; format: cell-based, human; details: 0.5 mM, compared to control (0 hours), FIG. 3C
Description: The following antibodies were obtained from Cell Signaling Technology (Beverly, Mass., USA) unless otherwise stated: anti-p27^KIP1 (bd Pharmingen), anti-p21^CIP1 , ANTI-CYCLIN d1, ANTI-CYCLIN d3, ANTI-CDK4, ANTI-CDK6, ANTI-PHOSPHO rb (Ser807/811), anti-RB, anti-phospho Akt (Ser473), anti-phospho Akt (Thre308), anti-Akt, anti-phospho PDK1 (Ser241), anti-phospho PDK1 (Tyr373/376), anti-phospho GSK-3β, anti-phospho mTOR (Ser2448), anti-mTOR, anti-βIII tubulin (Promega).
To determine the effect of selenate on the phosphorylation of proteins involved in the PI3K/Akt signaling cascade, 5×10^5 PC-3 cells were allowed to attach for 10 hours. […] Cells were lysed in ELB (250 mM NaCl, 50 mM HEPES pH 7.0, 5 mM EDTA, 0.5 mM DTT, 0.2% TX100, 20 mM sodium fluoride, 2 mM sodium pervanadate, Complete Protease Inhibitor Cocktail (Roche)). Lysates were centrifuged for 15 minutes at 4° C. Protein concentration was determined using the BCA system (Sigma) and equal amounts of protein were loaded into each lane of a SDS-polyacrylamide gel. The proteins were transferred onto PVDF (Millipore) membranes and detected with anti-mouse or anti-rabbit secondary antibodies couples to horseradish peroxidase (HRP) and chemiluminescence using the SuperSignal West Dura (Pierce). Membranes were stripped using the Restore Western Blot Stripping Buffer (Pierce).

GFP-FKHR fusion protein = experiment: GFP-FKHR cellular localization in transfected PC-3 cells; format: cell-based, human; details: LY294002 50 μM 1 hour; sodium selenate or selenomethionine 0.5 mM 3 hours
Description: The day before transfection, 5×10^5 PC-3 cells were seeded in 24-well dishes and transiently transfected with 0.8 μg of pcDNA3-GFP-FKHRwt construct (kind gift Dr Bill Sellers, Dana-Farber Institute, Boston) using Lipofectamine 2000 (Invitrogen). Cells were permeabilized in 0.2% Triton X-100 and the nuclear contents stained with DAPI. Coverslips were mounted with fluorescent mounting medium (DAKO). The cellular distribution of green fluorescence was determined in dual fluorescent cells using a Leica epifluorescent microscope.
Reintroducing PTEN function in such cells induces translocation of FKHR to the nucleus eventually causing G1 arrest in PTEN-null cells (Nakamura et al 2000, supra).

[3] = system: human prostate cancer PC-3 cells; experiment: Cell toxicity by Trypan Blue Exclusion, selenate versus selenite; details: 5 μM or 50 μM, 24 to 96 hours
Description: 5×10^3 human prostate cancer PC-3 cells were seeded in a 24-well dish and 8 hours later were treated with either 5 μM or 50 μM of selenate or selenite. The dose range of 5 μM or 50 μM is equivalent to 0.1 mg/kg to 1.25 mg/kg. Cells were harvested at 24, 48, 72 and 96 hours following the addition of selenate or selenite and the percentage of viable cells as assessed by Trypan Blue staining was determined.
All cells in the tissue culture wells were then harvested sequentially at periods between 24 and 96 hours following addition of the treatments. The percentage of viable cells were then determined using the Trypan Blue exclusion assay.

β-tubulin = β-tubulin levels in treated PC-3 cell lysates; format: cell-based, human
Histone H2A.X = details: 500 μM
Description: 5×10^5 PC-3 cells were plated in a 6 well dish and 24 hours later cells were treated with paclitaxel at 1 μg/mL or 10 μg/mL or selenate 500 μM (19 mg/kg) or selenite 500 μM (18 mg/kg) for the indicated times. Cells were then washed in PBS, lysed in ELB lysis buffer and whole cell lysates run on a SDS-PAGE gel and blotted and probed with the indicated antibodies. Phosphorylation of Histone H2AX occurs within minutes of DNA damage, typically via DNA double or single strand breaks and is a very sensitive readout of DNA damage.
To ascertain the differences between selenate, selenite and the taxane, paclitaxel in inducing DNA damage PC-3 cells were treated with these compounds for increasing time periods then lysed. The protein extracts were probed for phosphorylation of Histone H2A.X using a phosphorylation specific antibody.

[4] = at certain doses; cited from earlier work

Question: What does the source list for `C[Se](=O)O` [Methylseleninic acid]?
Answer: apoptosis and phosphorylation of Akt in DU-145 cells ([1]; 3 μM): not associated with apoptosis or with decreased phosphorylation of Akt; G1 arrest and apoptosis markers in DU145 cells [1]: induces G1 arrest, as well as DNA fragmentation and caspase mediated cleavage of PARP; G1 arrest of DU-145 cells ([1]; doses as low as 3 μM): induced G1 arrest; Akt activation in DU-145 cells ([1]; higher doses of 5 μM): dose-dependent decline in Akt activation; apoptosis in DU-145 cells ([1]; higher doses of 5 μM): initiation of caspase-mediated apoptosis

Question: With `N[C@@H](C[SeH])C(=O)O` [Selenocysteine] as the compound, how does the “activation of Akt (phosphorylated Akt relative to total Akt)” value (Akt) read?
Answer: The value was “induce activation of Akt above control (con) levels”.

Question: With `O=[Se](O)O` [Selenous acid] as the compound, how does the “activation of Akt (phosphorylated Akt relative to total Akt)” value (Akt) read?
Answer: Its value is “induce activation of Akt above control (con) levels”.

Question: For `O=[Se]=O` [selenium dioxide], which “activation of Akt (phosphorylated Akt relative to total Akt)” value (Akt) is on record?
Answer: Its value is “induce activation of Akt above control (con) levels”.

Question: Which “activation of Akt (phosphorylated Akt relative to total Akt)” value (Akt) does the source give for `S=[Se]=S` [selenium sulfide] here?
Answer: Its value is “induce activation of Akt above control (con) levels”.

Question: Which “PC-3 cell proliferation (MTT proliferative index)” value (PC-3 cells) does the source give for `C[Se]CC[C@H](N)C(=O)O` [selenomethionine, reference compound] here?
Answer: Its value is “less effective in reducing cell proliferation”.

Question: And the “p27KIP1 total protein levels, inorganic versus organic selenium” value [2]?
Answer: The value was “little effect”.

Question: And the “relocalization of GFP-FKHR from the cytoplasm to the nucleus” value (GFP-FKHR fusion protein)?
Answer: Its value is “unable to induce relocalization”.

Question: Which results are given for `O=[Se](O)O` [sodium selenite]?
Answer: cytotoxic effect (Trypan Blue exclusion) [3]: cytotoxic effect; cellular tubulin degradation (β-tubulin; 100 μM, 250 μM or 500 μM, 16 hours): marked degradation; β-tubulin levels (β-tubulin; 500 μM, increasing time periods): concomitant decrease in β-tubulin levels; time of treatment to DNA damage (Histone H2A.X): ≤ 30 min; toxicity to cells [4]: toxic to cells
